IC50 data for seven compounds are collected here from ChEMBL document CHEMBL2321647 (ACS Med Chem Lett, 2013).

In one experiment the target is Histone deacetylase 9 (Homo sapiens, UniProt Q9UKV0). Briefly: Inhibition of C-terminal His-tagged human recombinant HDAC9 (amino acids 604- 1066) expressed in baculovirus expression system using fluorogenic acetylated peptide as substrate preincubated with enzyme for 10 mins prior to substrate addition measured after 60 mins by fluorescence analysis.
For a further experiment, the target named is Histone deacetylase 3 (Homo sapiens, UniProt O15379). Kind of experiment: Inhibition of C-terminal His-tagged full length human recombinant HDAC3 co-expressed with NcoR2 in baculovirus expression system using fluorogenic acetylated peptide as substrate preincubated with enzyme for 10 mins prior to substrate addition measured after 60 mins by fluorescence analysis.

A further experiment addresses Histone deacetylase 2 (Homo sapiens, UniProt Q92769). Kind of experiment: Inhibition of C-terminal His-tagged full length human recombinant HDAC2 expressed in baculovirus expression system using fluorogenic acetylated peptide as substrate preincubated with enzyme for 10 mins prior to substrate addition measured after 60 mins by fluorescence analysis.
The target in a further experiment is Histone deacetylase 1 (Homo sapiens, UniProt Q13547). Kind of experiment: Inhibition of C-terminal His-tagged and C-terminal FLAG-tagged full length human recombinant HDAC1 expressed in baculovirus expression system using fluorogenic acetylated peptide as substrate preincubated with enzyme for 10 mins prior to substrate addition measured after 60 mins by fluorescence analysis.
Histone deacetylase 1, sequence (Q13547 whole entry): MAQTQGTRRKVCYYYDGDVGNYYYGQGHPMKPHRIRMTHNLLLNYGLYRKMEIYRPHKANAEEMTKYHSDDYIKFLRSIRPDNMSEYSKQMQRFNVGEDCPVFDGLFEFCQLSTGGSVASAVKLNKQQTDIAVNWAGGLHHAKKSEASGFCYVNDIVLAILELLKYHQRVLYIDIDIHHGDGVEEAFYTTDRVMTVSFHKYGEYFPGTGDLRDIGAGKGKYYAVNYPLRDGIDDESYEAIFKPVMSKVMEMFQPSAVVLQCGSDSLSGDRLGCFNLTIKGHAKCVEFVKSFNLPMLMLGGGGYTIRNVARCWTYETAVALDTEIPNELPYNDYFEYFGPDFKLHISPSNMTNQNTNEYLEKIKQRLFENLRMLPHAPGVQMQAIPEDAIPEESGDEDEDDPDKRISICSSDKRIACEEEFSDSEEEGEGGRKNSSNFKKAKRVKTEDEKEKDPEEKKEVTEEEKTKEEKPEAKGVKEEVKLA

Histone deacetylase 3, sequence (O15379 whole entry): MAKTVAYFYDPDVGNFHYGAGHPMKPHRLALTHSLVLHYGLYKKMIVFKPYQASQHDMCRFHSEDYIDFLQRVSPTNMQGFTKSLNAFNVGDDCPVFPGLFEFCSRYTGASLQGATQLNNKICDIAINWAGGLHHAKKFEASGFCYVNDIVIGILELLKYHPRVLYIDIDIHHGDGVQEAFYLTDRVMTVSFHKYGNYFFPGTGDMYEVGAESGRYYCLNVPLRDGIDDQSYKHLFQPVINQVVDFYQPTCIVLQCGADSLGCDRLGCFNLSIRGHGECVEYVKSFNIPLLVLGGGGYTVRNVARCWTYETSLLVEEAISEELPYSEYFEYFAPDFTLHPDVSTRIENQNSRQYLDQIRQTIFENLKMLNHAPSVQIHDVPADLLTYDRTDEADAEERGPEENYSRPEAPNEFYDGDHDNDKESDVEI
Histone deacetylase 9, sequence (Q9UKV0 whole entry, the tested form may be a part): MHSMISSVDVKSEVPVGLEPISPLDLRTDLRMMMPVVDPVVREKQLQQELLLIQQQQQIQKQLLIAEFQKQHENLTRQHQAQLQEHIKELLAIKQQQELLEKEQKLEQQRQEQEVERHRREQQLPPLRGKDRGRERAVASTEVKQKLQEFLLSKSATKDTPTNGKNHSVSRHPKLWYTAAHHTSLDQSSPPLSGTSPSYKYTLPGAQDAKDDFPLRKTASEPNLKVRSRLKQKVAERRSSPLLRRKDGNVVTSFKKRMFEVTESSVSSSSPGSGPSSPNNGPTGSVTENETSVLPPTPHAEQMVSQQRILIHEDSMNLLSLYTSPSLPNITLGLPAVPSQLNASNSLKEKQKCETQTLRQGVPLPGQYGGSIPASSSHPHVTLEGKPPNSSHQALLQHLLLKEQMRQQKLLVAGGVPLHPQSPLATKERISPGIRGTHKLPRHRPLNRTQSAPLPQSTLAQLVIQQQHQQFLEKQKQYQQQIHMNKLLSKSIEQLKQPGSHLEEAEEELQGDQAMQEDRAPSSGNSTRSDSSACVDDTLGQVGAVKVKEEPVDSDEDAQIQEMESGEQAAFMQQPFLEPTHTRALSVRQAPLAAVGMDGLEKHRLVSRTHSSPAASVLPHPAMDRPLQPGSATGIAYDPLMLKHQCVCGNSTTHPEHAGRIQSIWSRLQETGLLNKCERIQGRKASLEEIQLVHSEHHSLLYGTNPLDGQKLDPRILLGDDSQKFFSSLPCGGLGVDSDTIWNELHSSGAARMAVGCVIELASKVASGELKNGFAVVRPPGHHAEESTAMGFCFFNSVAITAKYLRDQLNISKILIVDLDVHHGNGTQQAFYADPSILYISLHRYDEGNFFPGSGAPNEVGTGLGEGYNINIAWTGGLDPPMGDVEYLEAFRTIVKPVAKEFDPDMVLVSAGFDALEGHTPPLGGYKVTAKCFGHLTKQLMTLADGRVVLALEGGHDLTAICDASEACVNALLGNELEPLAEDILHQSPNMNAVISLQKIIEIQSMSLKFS
Histone deacetylase 2, sequence (Q92769 whole entry): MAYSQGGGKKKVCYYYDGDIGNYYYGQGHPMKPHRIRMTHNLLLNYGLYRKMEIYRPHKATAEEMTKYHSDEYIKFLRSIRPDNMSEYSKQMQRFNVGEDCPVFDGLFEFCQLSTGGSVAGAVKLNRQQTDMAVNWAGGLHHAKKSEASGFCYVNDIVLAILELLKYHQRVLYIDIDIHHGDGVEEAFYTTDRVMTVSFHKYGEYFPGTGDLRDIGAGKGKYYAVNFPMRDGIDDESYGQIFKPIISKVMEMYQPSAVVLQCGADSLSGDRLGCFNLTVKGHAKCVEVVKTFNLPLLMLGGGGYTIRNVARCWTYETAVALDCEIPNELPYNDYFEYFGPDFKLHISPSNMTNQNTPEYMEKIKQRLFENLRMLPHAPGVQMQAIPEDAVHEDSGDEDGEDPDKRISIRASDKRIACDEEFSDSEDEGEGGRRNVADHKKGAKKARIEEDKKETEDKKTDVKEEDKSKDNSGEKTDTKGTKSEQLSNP

In the case of `CCCCCCCC(=O)SCC/C=C/[C@@H]1CC(=O)NCc2nc(cs2)-c2nnn(n2)CC(=O)N[C@@H](C(C)C)C(=O)O1`, the 50% inhibitory concentration (IC50) (commonly the concentration needed to halve the response being measured) on Histone deacetylase 9 is above 100 µM; on Histone deacetylase 3 it was 3.99 µM; on Histone deacetylase 2, 30.8 µM; on Histone deacetylase 1 it was 7.42 µM.
The like results for `CC(C)[C@@H]1NC(=O)Cn2nnc(n2)-c2csc(n2)CNC(=O)C[C@@H](/C=C/CCS)OC1=O` were, in that order, 34.6 µM, 0.031 µM, 0.224 µM and 0.1 µM.
Consider `CCCCCCCC(=O)SCC/C=C/[C@@H]1CC(=O)NCc2nc(cs2)-c2nnnn2CC(=O)N[C@@H](C(C)C)C(=O)O1`, for which the IC50 at Histone deacetylase 9 was 18.4 µM; on Histone deacetylase 3, 10.4 µM; on Histone deacetylase 2, 25.1 µM.
For the compound `CC(C)[C@@H]1NC(=O)Cn2nnnc2-c2csc(n2)CNC(=O)C[C@@H](/C=C/CCS)OC1=O`, the 50% inhibitory concentration (IC50) at Histone deacetylase 9 came to 16.2 µM; at Histone deacetylase 3 it was 0.649 µM; at Histone deacetylase 2, 3.27 µM; at Histone deacetylase 1, 1.67 µM.
The like results for `CCCCCCCC(=O)SCC/C=C/[C@@H]1CC(=O)NCc2nc(cs2)-c2cn(nn2)CC(=O)N[C@@H](C(C)C)C(=O)O1` were, in that order, 63.2 µM, 14 µM, 32.1 µM and 17.6 µM.
In the case of `CC(C)[C@@H]1NC(=O)Cn2cc(nn2)-c2csc(n2)CNC(=O)C[C@@H](/C=C/CCS)OC1=O`, the IC50 at Histone deacetylase 9 came out at 32 µM; on Histone deacetylase 3 it was 0.885 µM; on Histone deacetylase 2, 3.88 µM; on Histone deacetylase 1, 2.35 µM.
As to `CCCCCCCC(=O)SCC/C=C/[C@@H]1CC(=O)NCc2nc(cs2)C2=N[C@@](C)(CS2)C(=O)N[C@@H](C(C)C)C(=O)O1` [LARGAZOLE], the IC50 on Histone deacetylase 9 was determined as 8.33 µM; on Histone deacetylase 2, 1.72 µM; at Histone deacetylase 1, 0.146 µM.
